Experimental data published in PubChem BioAssay (NCI).
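Exposure lasted 48 hours, with cells grown in 96-well plates and compounds tested at five concentrations. GI50 = concentration required for 50% inhibition of growth. TGI denotes the concentration required for complete inhibition of growth.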

Tests used:
Test in all cases: NCI tumour cell line growth inhibition, 48 h
K-562 leukemia = tested on: K-562 leukemia
MDA-MB-231 breast = tested on: MDA-MB-231 breast
786-0 renal = tested on: 786-0 renal
MCF7 breast = tested on: MCF7 breast
HCC-2998 colon = tested on: HCC-2998 colon
HOP-92 NSCLC = tested on: HOP-92 NSCLC
OVCAR-3 ovarian = tested on: OVCAR-3 ovarian
CCRF-CEM leukemia = tested on: CCRF-CEM leukemia
NCI-H226 lung = tested on: NCI-H226 lung

SMILES | GI50 (K-562 leukemia) [µM] | TGI (K-562 leukemia) [µM] | GI50 (MDA-MB-231 breast) [µM] | TGI (MDA-MB-231 breast) [µM] | GI50 (786-0 renal) [µM] | TGI (786-0 renal) [µM] | GI50 (MCF7 breast) [µM] | TGI (MCF7 breast) [µM] | GI50 (HCC-2998 colon) [µM] | TGI (HCC-2998 colon) [µM] | GI50 (HOP-92 NSCLC) [µM] | TGI (HOP-92 NSCLC) [µM] | GI50 (OVCAR-3 ovarian) [µM] | TGI (OVCAR-3 ovarian) [µM] | GI50 (CCRF-CEM leukemia) [µM] | TGI (CCRF-CEM leukemia) [µM] | GI50 (NCI-H226 lung) [µM] | TGI (NCI-H226 lung) [µM]
CC1(C)N=C(N)N=C(N)N1c1ccc(OCCCNC(=O)Nc2cccc(S(=O)(=O)F)c2)c(Cl)c1 | 0.598 | > 100 | 7.25 | > 100 | 1.11 | > 100 | 3.82 | > 100 | 8.55 | > 100 | 3.06 | > 100 | 8.12 | > 100 | 3.62 | > 100 | 8.37 | > 100
C/C(=N\OCC(O)CNCCSCc1ccccc1)c1ccccc1Cl (stereo not given) | – | 92.9 | – | 35 | – | 46.3 | – | 44.6 | – | 40.9 | – | 28.4 | – | 34.6 | – | 72.9 | – | 35.4
CCOC(=O)C(CCC(N)=O)(CCC(=O)OC)C(=O)OCC | – | > 100 | – | – | – | > 100 | – | – | – | > 100 | – | > 100 | – | > 100 | – | – | – | > 100
OCC[N+]12CCCN1CCC2 | – | > 100 | – | – | – | > 100 | – | – | – | > 100 | – | > 100 | – | > 100 | – | > 100 | – | > 100
O=C(NCCCl)Nc1cccnc1 | – | > 100 | – | 33.3 | – | 39.9 | – | > 100 | – | 37.5 | – | 53.3 | – | 83.2 | – | > 100 | – | 30.5
Cn1c2c(c3ccccc31)CCN(CCCCN1CCN(c3ccccc3)CC1)C2=O | – | > 56 | – | – | – | > 46.4 | – | 63.2 | – | 31.7 | – | > 100 | – | > 100 | – | > 79.9 | – | > 87
Cc1ccc(/C=C(\NC(=O)c2ccccc2)c2nc3ccccc3[nH]2)cc1 | – | – | – | – | – | > 100 | – | – | – | > 100 | – | 86.5 | – | > 100 | – | – | – | –
CSc1nc2nn(Cc3ccccc3)cc2c(=O)[nH]1 | – | > 100 | – | – | – | > 100 | – | – | – | > 100 | – | > 100 | – | > 100 | – | > 100 | – | > 100
CCC1C(C(=O)Nc2ccccc2C)=C(C)NC(C)=C1c1ccccc1C (stereo not given) | – | > 100 | – | – | – | > 100 | – | – | – | > 100 | – | > 100 | – | > 100 | – | > 100 | – | > 100
